Test results: PMC8389655, “Au2phen and Auoxo6, Two Dinuclear Oxo-Bridged Gold(III) Compounds, Induce Apoptotic Signaling in Human Ovarian A2780 Cancer Cells” (Biomedicines, 2021)

Legend:
AKT = assay: Western blot of phospho(Ser473)-AKT and total AKT; format: cell-based, human; conditions: A2780, 24 h at 72 h IC50 dose, vs controls
Protocol: (§1) After drug treatments, cells were lysed in RIPA buffer supplemented with a cocktail of protease and phosphatase inhibitors. […] To favor the electrophoretic separation, 25% sample loading buffer (SLB) was added to the cell lysates. Here, 20 µg samples of proteins from controls and treated cells were loaded on 4–20% pre-cast SDS-PAGE gels and blotted onto PVDF membranes. Primary antibodies Bcl-2 (1:1000 dilution,#sc-7382, Santa Cruz, Dallas, Texas USA), Bax (1:1000 dilution, #sc-493, Santa Cruz), OXPHOS cocktail (1:1000 dilution, #ab110413, AbCam, Cambridge, UK), citrate synthase (1:1000 dilution, #sc-515640, Santa Cruz), ASK1 (1:1000 dilution, #sc-390275, Santa Cruz), phospho(Thr838)-ASK1 (1:1000 dilution, #CPA6042, Cohesion Biosciences, London, UK), AKT (1:1000 dilution, #sc-5298, Santa Cruz), and phospho(Ser473)-AKT (1:1000 dilution, #GTX128414, GeneTex, Irvine, CA, USA) were added to 2% non-fat dry milk in PBS-tween solution, while PVDF membranes were incubated overnight at 4 °C. Then, membranes were treated with horseradish peroxidase (HRP)-conjugated secondary antibodies (1:5000 dilution, Santa Cruz) and immunoreactive bands were detected with an ECL kit detection system on an Amersham Imager 600 (GE Healthcare, Chicago, IL, USA). For the quantification, a densitometric analysis of the bands was performed using ImageJ2 software version 2.0.0-rc-64 [23]. The intensities of the immunostained bands were normalized on the Coomassie brilliant blue R-250-stained total protein from the same PVDF membrane.

[1] = tested on: HEK293 (human embryonic kidney) cells; assay: MTT antiproliferative assay on HEK cells; format: cell-based; conditions: for IC50: 72 h of treatment, MTT assay, mean ± SD of three experiments, read-out: Half-maximal inhibitory concentration (IC50), HEK293; for IC50 for HEK higher than for A2780 (fold): ratio of 72 h IC50 HEK / A2780
Protocol: (§2) The inhibition of cell proliferation by Au2phen, Auoxo6, and AuL12 on A2780 cell line was evaluated through MTT (3-(4,5-dimethylthiazol-2-yl)-2,5-diphenyltetrazolium bromide) test. Viable cells can convert MTT into formazan, which is coloured and detectable at 595 nm. Exponentially growing cells were seeded in 96 well-microplates at a density of 8 × 10^3 for 24 h and then gold compounds were added in fresh RPMI medium at concentrations ranging from 0.003 to 100 µM and incubated for 72 h. On the day of the test, cells were treated with 0.5 mg/mL MTT for 1 h at 37 °C. Following precipitation, blue formazan was dissolved in DMSO, and the optical density was read in a microplate reader interfaced with Microplate Manager/PV version 4.0 software (BioRad Laboratories, Hercules, USA). From the absorbance measurements, the half-maximal inhibitory concentration (IC50) value of each compound on A2780 cells was calculated using GraphPad Prism software version 6.0 (Graphpad Holdings, LLC, USA). The same protocol was applied on non-tumor cell lines, i.e., HEK and PNT1 cells.

[2] = tested on: mitochondrial membrane potential (Δψm) in A2780 cells; assay: Mitochondrial membrane potential (TMRM, flow cytometry); format: cell-based, human; conditions: A2780, 48 h exposure at 72 h IC50 dose, compared to controls
Protocol: The mitochondrial membrane potential (Δψm) was measured using tetramethylrhodamine methyl ester perchlorate (TMRM), a lipophilic potentiometric fluorescent dye that distributes between the mitochondria and cytosol in proportion to Δψm by virtue of its positive charge. The amount of accumulated dye in the mitochondria, and consequently the signal intensity, is a direct function of mitochondrial potential. […] Cells were then trypsinized, washed with PBS, and incubated with 100 nM TMRM for 20 min in the dark at 37 °C. After labelling, cells were washed again, suspended in PBS, and analyzed using a FACSCantoII flow cytometer (BD Biosciences, New Jersey, USA).

[3] = tested on: mitochondrial respiration of A2780 cells; assay: Oxygen consumption rate (Clark-type O2 electrode); format: cell-based, human; conditions: A2780, 24 h at 72 h IC50 dose, compared to controls
Protocol: The analysis of the oxygen consumption rate (OCR) was performed using a Clark-type O2 electrode inserted in a thermostated airtight chamber (Oxygraph Plus System, Hansatech Instruments, King’s Lynn, Norfolk, UK). Briefly, control and treated cells (12 and 24 h) were trypsinized, washed with PBS, and suspended in culture medium to measure the steady state OCR for 10 min. The OCR values, expressed as nmol of consumed O2/mL/min, were normalized to the cellular protein content. To evaluate the response of complex I, complex II/III, and ATP-synthase-driven OCRs in the presence or absence of gold-treatment, we used the protocol described by Baracca et al.. Cells were trypsinized, washed, and resuspended in buffer containing sucrose, TRIS-HCl, MgSO4, EDTA, and KH2PO4. Cell suspension was treated with digitonin to allow cell membrane permeabilization. To stimulate complex I, 250 mM glutamate/malate was added, whereas to stimulate complex II, 250 mM succinate was added (state 2 respiration). Then, to induce ATP-synthase-driven mitochondrial respiration, 10 mM ADP was added (state 3 respiration). To estimate the mitochondrial respiratory capacity, defined as the respiratory control ratio (RCR), state 3/state 2 ratios were calculated for control and treated cells.

[4] = tested on: A2780 human ovarian cancer cell line; assay: MTT antiproliferative assay on A2780 cells; format: cell-based; conditions: for IC50: 72 h of treatment, MTT assay, mean ± SD of three experiments, read-out: Half-maximal inhibitory concentration (IC50), A2780; for cytotoxic potency on A2780 higher than that of AuL12 (fold): from 72 h IC50 values on A2780
Protocol: as §2
The effects of these 72 h exposure IC50 doses on A2780 cell viability were also evaluated using an MTT time course assay at 12, 24, 48, and 72 h of drug exposure. The experimental protocol described above was applied.

A2780 cells = assay: Annexin V/propidium iodide flow cytometry (apoptosis); format: cell-based, human; conditions: A2780, 72 h exposure at IC50 dose
Protocol: The evaluation of cell death was carried out using the TACS annexin V/propidium iodide staining kit (Trevigen, Gaithersburg, MD, USA) according to the manufacturer’s instructions. […] After 72 h, controls and treated cells were trypsinized, washed with PBS buffer, and suspended in the staining solution for 15 min at room temperature in the dark. Cells were then washed and immediately analyzed by FACSCantoII flow cytometer (BD Biosciences, New Jersey, USA). Cells were gated and plotted on dot plots showing the distribution of annexin V-positive cells (early apoptotic cells) and annexin V/propidium iodide-positive cells (late apoptotic cells).

Bax = assay: Western blot of Bax content; format: cell-based, human; conditions: A2780, 48 h at 72 h IC50 dose, compared to controls
Protocol: as §1

SMILES | reduction of phospho-AKT levels (phosphorylated-AKT/total AKT ratio) (AKT) | IC50 [1] [µM] | IC50 for HEK higher than for A2780 (fold) [1] [fold] | cells bearing lower Δψm (low TMRM fluorescence) [2] | reduction of oxygen consumption rate (OCR) [3] [%] | IC50 [4] [µM] | cytotoxic potency on A2780 higher than that of AuL12 (fold) [4] [fold] | increase of annexin V fluorescence intensity vs untreated control cells (A2780 cells) [fold] | increase of proapoptotic Bax protein (Bax)
Cc1ccc2ccc3ccc(C)[n+]4c3c2[n+]1[Au-]41[O][Au-]2([O]1)[n+]1c(C)ccc3ccc4ccc(C)[n+]2c4c31.F[P-](F)(F)(F)(F)F.F[P-](F)(F)(F)(F)F [Au2phen, ((2,9-dimethyl-1,10-phenanthroline)2Au2(µ-O)2)(PF6)2] | about 12% | 4.18 ± 0.05 | 5 | about 26% | 26.8 | 0.8 ± 0.02 | 5 | 6 | about 29%
Cc1cccc2[n+]1[Au-]1([O][Au-]3([O]1)[n+]1c(C)cccc1-c1cccc(C)[n+]13)[n+]1c(C)cccc1-2.F[P-](F)(F)(F)(F)F.F[P-](F)(F)(F)(F)F [Auoxo6, ((6,6′-dimethyl-2,2′-bipyridine)2Au2(µ-O)2)(PF6)2] | ~19% | 6.16 ± 0.04 | 5 | 17% | 24.7 | 1.14 ± 0.18 | 3.5 | 10 | ~20%
CCOC(=O)CN(C)C1=[S+][Au-]([Br])([Br])[S]1 [AuL12, dibromo(ethylsarcosinedithiocarbamate)gold(III), reference compound] | ~17% | 10.7 ± 0.36 | 2.7 | ~36% | 18 | 4 ± 0.03 | – | 5 | ~34%
